In patent US20230151049A1, “Compounds Useful in HIV Therapy” (priority 2020, published 2023):
Like-named read-outs stand apart in the source and are kept apart here.

Assay: in vivo
Conditions: for concentration at 1 day: day 1; for concentration at 7 day: day 7; for concentration at 14 day: day 14
Excerpt: General Protocol for Prodrugs Rat PK Studies Conducted at ChemPartner, China
A total of three naïve male Wistar Han rats, 200-250 g, were received from Beijing VR Laboratory Animal Co. LTD. Following an acclimation period, the animals were assigned to the study based on acceptable health as determined by a staff veterinarian and catheter patency. Fasting of the animals before or after dosing was not required.
On Day 1, each animal received a single intramuscular injection of prepared test article at a target dose level of 20 mg/kg equivalent of EFdA and at a dose volume of 2 mL/kg. The injection sites were at gastrocnemius and identified with an indelible marker for daily monitoring during the study. The animals were manually restrained for dosing and were not sedated. The dose suspension was mixed well by inversion before each dose to ensure homogeneity. […] In addition, all animals are monitored twice daily by the veterinary staff for clinical abnormalities.
Blood samples were collected from the study animals as detailed in the sample collection Table 6 below
Each blood sample for PK (200 μL) was collected from tail vein. The blood was transferred to a tube containing NaF/Na2EDTA anticoagulant and inverted several times to mix. Draw 150 μL whole blood from the tube, add 150 uL 100 mM ammonium acetate, pH 4 buffer and mix well. The resulting blood samples were transferred to individual polypropylene tubes and immediately placed on dry ice until storage at nominally −80° C. prior to LC-MS/MS analysis.

[1] = day 77, single IM Example 2A 56 mg/kg
[2] = day 84, single IM Example 2A 56 mg/kg
[3] = male, Wistar Han, rat, in vivo, single IM Example 2A 56 mg/kg, read-out: Mean concentration of Example 2A
[4] = male, Wistar Han, rat, in vivo, single IM Example 37A 56 mg/kg, read-out: Mean concentration of Example 37A

For `C#C[C@]1(COP(=O)(N[C@@H](Cc2ccccc2)C(=O)OCCCCCCCCCCCCCCCC)Oc2ccccc2)O[C@@H](n2cnc3c(N)nc(F)nc32)C[C@@H]1O` (single isomer, unassigned) [Example 2A], the “Mean concentration of Example 2A” value (day 42, single IM Example 2A 56 mg/kg) was “BQL”, the “Mean concentration of Example 2A” value (day 49, single IM Example 2A 56 mg/kg) was “BQL” and the “Mean concentration of Example 2A” value (day 70, single IM Example 2A 56 mg/kg) was “BQL”. For the same molecule, the “Mean concentration of EFdA” value [1] was “BQL (BQL = below quantification limit, o.5 ng/mL for Example 2A and 0.1-0.3 ng/mL for EFdA)”, the “Mean concentration of Example 2A” value [1] was “BQL” and the “Mean concentration of EFdA” value [2] was “BQL (BQL = below quantification limit, o.5 ng/mL for Example 2A and 0.1-0.3 ng/mL for EFdA)”. For the same molecule, the “Mean concentration of Example 2A” value [2] was “BQL”, the concentration at 1 day [3] was 3.54 ng/mL and the concentration at 7 day [3] was 1.35 ng/mL. For the same molecule, the concentration at 14 day [3] was 3.35 ng/mL, the concentration at 21 day (male, Wistar Han, rat, in vivo, day 21, single IM Example 2A 56 mg/kg, read-out: Mean concentration of Example 2A) was 2.42 ng/mL and the concentration at 28 day (male, Wistar Han, rat, in vivo, day 28, single IM Example 2A 56 mg/kg, read-out: Mean concentration of Example 2A) was 4.08 ng/mL. The concentration at 35 day (male, Wistar Han, rat, in vivo, day 35, single IM Example 2A 56 mg/kg, read-out: Mean concentration of Example 2A) was 4.53 ng/mL, the concentration at 56 day (male, Wistar Han, rat, in vivo, day 56, single IM Example 2A 56 mg/kg, read-out: Mean concentration of Example 2A) was 1.14 ng/mL and the concentration at 63 day (male, Wistar Han, rat, in vivo, day 63, single IM Example 2A 56 mg/kg, read-out: Mean concentration of Example 2A) was 1.05 ng/mL.

In the case of `C#C[C@]1(COP(=O)(N[C@@H](C)C(=O)OC(CCCCCCCCCC)CCCCCCCCCC)Oc2ccccc2)O[C@@H](n2cnc3c(N)nc(F)nc32)C[C@@H]1O` (single isomer, unassigned) [Example 37A], the “Mean concentration of EFdA” value (day 21, single IM Example 37A 56 mg/kg) is reported as “BQL (BQL = below quantification limit, 0.3 ng/ml for both)”, the “Mean concentration of EFdA” value (day 28, single IM Example 37A 56 mg/kg) is reported as “BQL (BQL = below quantification limit, 0.3 ng/ml for both)” and the “Mean concentration of EFdA” value (day 35, single IM Example 37A 56 mg/kg) is reported as “BQL (BQL = below quantification limit, 0.3 ng/ml for both)”. For the same molecule, the “Mean concentration of EFdA” value (day 42, single IM Example 37A 56 mg/kg) was “BQL (BQL = below quantification limit, 0.3 ng/ml for both)”, the “Mean concentration of EFdA” value (day 49, single IM Example 37A 56 mg/kg) was “BQL (BQL = below quantification limit, 0.3 ng/ml for both)” and the “Mean concentration of EFdA” value (day 56, single IM Example 37A 56 mg/kg) was “BQL (BQL = below quantification limit, 0.3 ng/ml for both)”. For the same molecule, the “Mean concentration of EFdA” value (day 63, single IM Example 37A 56 mg/kg) was “BQL (BQL = below quantification limit, 0.3 ng/ml for both)”, the “Mean concentration of EFdA” value (day 70, single IM Example 37A 56 mg/kg) was “BQL (BQL = below quantification limit, 0.3 ng/ml for both)” and the “Mean concentration of EFdA” value (day 77, single IM Example 37A 56 mg/kg) was “BQL (BQL = below quantification limit, 0.3 ng/ml for both)”. For the same molecule, the “Mean concentration of EFdA” value (day 84, single IM Example 37A 56 mg/kg) was “BQL (BQL = below quantification limit, 0.3 ng/ml for both)”, the concentration at 1 day [4] was 17.9 ng/mL and the concentration at 7 day [4] was 3.58 ng/mL. For the same molecule, the concentration at 14 day [4] was 3.8 ng/mL, the concentration at 21 day (male, Wistar Han, rat, in vivo, day 21, single IM Example 37A 56 mg/kg, read-out: Mean concentration of Example 37A) was 5.16 ng/mL and the concentration at 28 day (male, Wistar Han, rat, in vivo, day 28, single IM Example 37A 56 mg/kg, read-out: Mean concentration of Example 37A) was 4.16 ng/mL. It also gave a concentration at 35 day (male, Wistar Han, rat, in vivo, day 35, single IM Example 37A 56 mg/kg, read-out: Mean concentration of Example 37A) of 4.95 ng/mL, a concentration at 42 day (male, Wistar Han, rat, in vivo, day 42, single IM Example 37A 56 mg/kg, read-out: Mean concentration of Example 37A) of 5.29 ng/mL and a concentration at 49 day (male, Wistar Han, rat, in vivo, day 49, single IM Example 37A 56 mg/kg, read-out: Mean concentration of Example 37A) of 4.89 ng/mL. For the same molecule, the concentration at 56 day (male, Wistar Han, rat, in vivo, day 56, single IM Example 37A 56 mg/kg, read-out: Mean concentration of Example 37A) was 4.94 ng/mL, the concentration at 63 day (male, Wistar Han, rat, in vivo, day 63, single IM Example 37A 56 mg/kg, read-out: Mean concentration of Example 37A) was 4.46 ng/mL and the concentration at 70 day (male, Wistar Han, rat, in vivo, day 70, single IM Example 37A 56 mg/kg, read-out: Mean concentration of Example 37A) was 3.78 ng/mL. It also gave a concentration at 77 day (male, Wistar Han, rat, in vivo, day 77, single IM Example 37A 56 mg/kg, read-out: Mean concentration of Example 37A) of 3.46 ng/mL and a concentration at 84 day (male, Wistar Han, rat, in vivo, day 84, single IM Example 37A 56 mg/kg, read-out: Mean concentration of Example 37A) of 3.32 ng/mL.
